Assay results: US9340559B2, “Proteasome inhibitor delanzomib for use in the treatment of lupus” (Cephalon, Inc., priority 2011, dated 2016)

Columns and labels:
[1] = test system: NZM mice; assay type: in vivo, mouse; conditions: G7 50 mg/kg 1× wk ip
[2] = test system: NZM mice; test: Antinuclear antibody (ANA) ELISA (anti-chromatin, anti-Smith Ag, anti-dsDNA), serum of NZM mice (Example 2); assay type: in vivo, mouse
[3] = test system: NZM mice; test: Antibody secreting B-cell Elispot (anti-chromatin, total IgG ASC), spleens of NZM mice (Example 2); assay type: in vivo, mouse
Protocol: (§1) FIG. 34 depicts the frequency of anti-chromatin antibody secreting cells in the spleens of NZM mice. NZM treated mice spleens were processed for splenocytes for ex vivo Elispot assays. Elispot wells were coated with 10 μg/mL of boiled chicken chromatin or ovalbumin protein. Fresh, whole splenocytes were added to each well at 50,000 cells per well in cell culture medium. Cells were incubated overnight at 37° C. Developed wells provided spots that were counted as frequency of ASCs per million splenocytes.
as §1, with “35” for “34”, “total IgG” for “anti-chromatin”, “anti-mouse IgG, IgH, and IgL chains.” for “boiled chicken chromatin or ovalbumin protein.”
B-cell Elispot components are ordered from MabTech (Nacka Strand, Sweden) and nitrocellulose IP filter plates are ordered from Millipore (Billerica, Mass.). Elispot wells are coated with either purified bovine thymus dsDNA (Sigma), purified bovine Smith antigen (GenWay) or boiled filtered purified chicken chromatin from lysed chicken red blood cells (Rockland, Gilbertsville, Pa.) at 10 μg/mL. Spleens are processed using glass homogenization (frosted slides). Dispersed cell contents are washed in sterile HBSS and RBCs lysed using 1×RBC lysis buffer (BioLegend, Cat #420301). Processed splenocytes are added to each well and are not stimulated with lipopolysaccharide (LPS) to avoid skewing of true ex vivo frequencies of antibody-secreting cell types (ASCs). Anti-mouse pan-IgG is used as a positive control for total IgG producing ASCs and is used to normalize results. Frequencies for each antigen are identified in an initial test phase for each model. For chromatin and total IgG only, 30,000 splenocytes are added to each well; for Smith antigen and dsDNA, 500,000 cells are added to each well. Different numbers of splenocytes are added for different antigens due to saturation limits of spot frequencies per well. B-cell Elispots are incubated overnight at 37° C. To develop each assay, secondary antibody is added to each well, incubated, washed and alkaline phosphatase strepavidin (Jackson ImmunoResearch, West Grove, Pa.) is used as the conjugate; substrate used is BCIP-NBT (MabTech, Cincinnati, Ohio). Plates are developed until spots are visible. All Elispot analyses are performed using an Immunospot C.T.L. scanner and Biospot software (Cellular Technology Ltd., Shaker Heights, Ohio). Results are shown as values from which media and cells only wells are subtracted. Some values are negative due to high background.

[4] = test system: NZM mice; test: Urinalysis: total urine protein (proteinuria), NZM mice (Example 2); assay type: in vivo, mouse; conditions: G6 50 mg/kg ip, 1× wk
[5] = test system: NZM mice; test: Serum C3 complement ELISA, NZM mice (Example 2)

SMILES: O=P1(N(CCCl)CCCl)NCCCO1 (stereo not drawn) [CTX, Cyclophosphamide]
- p, serum IL-17A concentration vs G8 Dex 1.5 mg/kg 3× wk ip [1]: p < 0.001
- p, serum IL-17A concentration vs G9 Vehicle 1× wk ip [1]: p < 0.001
- p, serum IP-10 concentration vs G5 Bortezomib 0.3 mg/kg 1× wk ip [1]: P < 0.001
- p, serum IP-10 concentration vs G6 Bortezomib 0.3 mg/kg 2× wk ip [1]: p < 0.001
- p, serum IP-10 concentration vs G8 Dex 1.5 mg/kg 3× wk ip [1]: P < 0.001
- p, serum IP-10 concentration vs G9 Vehicle 1× wk ip [1]: p < 0.001
- p, serum MIG concentration vs G5 Bortezomib 0.3 mg/kg 1× wk ip [1]: p < 0.001
- p, serum MIG concentration vs G6 Bortezomib 0.3 mg/kg 2× wk ip [1]: p < 0.001
- p, serum MIG concentration vs G8 Dex 1.5 mg/kg 3× wk ip [1]: p < 0.001
- p, serum MIG concentration vs G9 Vehicle 1× wk ip [1]: p < 0.001
- p, serum TNFα concentration vs G5 Bortezomib 0.3 mg/kg 1× wk ip [1]: NS (NS = not significant (p > 0.05))
- p, serum TNFα concentration vs G6 Bortezomib 0.3 mg/kg 2× wk ip [1]: NS (NS = not significant (p > 0.05))
- p, serum TNFα concentration vs G8 Dex 1.5 mg/kg 3× wk ip [1]: p <0.05
- p, serum TNFα concentration vs G9 Vehicle 1× wk ip [1]: NS (NS = not significant (p > 0.05))
- ANA Smith Ag AUC, percent change vs vehicle ([2]; G6 50 mg/kg ip, 1× wk): −86%
- ANA chromatin AUC, percent change vs vehicle ([2]; G6 50 mg/kg ip, 1× wk): −51%
- ANA dsDNA AUC, percent change vs vehicle ([2]; G6 50 mg/kg ip, 1× wk): −66%
- reduction in anti-chromatin Ab relative to vehicle, significance ([2]; bortezomib, Dex or CTX treatment groups): none of which was significant
- ASC chromatin EOS, percent change vs vehicle ([3]; G6 50 mg/kg ip, 1× wk): −100%
- ASC total IgG EOS, percent change vs vehicle ([3]; G6 50 mg/kg ip, 1× wk): −93%
- p, frequency of anti-chromatin antibody secreting cells in spleen vs G5 Bortezomib 0.3 mg/kg 1× wk ip ([3]; G7 50 mg/kg 1× wk ip): P < 0.05
- p, frequency of anti-chromatin antibody secreting cells in spleen vs G6 Bortezomib 0.3 mg/kg 2× wk ip ([3]; G7 50 mg/kg 1× wk ip): p < 0.05
- p, frequency of anti-chromatin antibody secreting cells in spleen vs G9 Vehicle 1× wk ip ([3]; G7 50 mg/kg 1× wk ip): p < 0.01
- p, frequency of total IgG antibody secreting cells in spleen vs G5 Bortezomib 0.3 mg/kg 1× wk ip ([3]; G7 50 mg/kg 1× wk ip): p < 0.001
- p, frequency of total IgG antibody secreting cells in spleen vs G6 Bortezomib 0.3 mg/kg 2× wk ip ([3]; G7 50 mg/kg 1× wk ip): p < 0.001
- p, frequency of total IgG antibody secreting cells in spleen vs G8 Dex 1.5 mg/kg 3× wk ip ([3]; G7 50 mg/kg 1× wk ip): P < 0.01
- p, frequency of total IgG antibody secreting cells in spleen vs G9 Vehicle 1× wk ip ([3]; G7 50 mg/kg 1× wk ip): p < 0.01
- Urine proteinuria AUC, percent change vs vehicle [4]: −68%
- Serum C3 complement AUC, percent change vs vehicle ([5]; G6 50 mg/kg ip, 1× wk): −18%
- p, serum C3 complement levels vs G8 Dex 1.5 mg/kg 3× wk ip ([5]; G7 50 mg/kg 1× wk ip): p < 0.01
